Entries after “also recorded” stand apart in the source; their conditions may differ.
What was measured:
[1] = system: edema of the paws of rats; assay: anti-inflammatory action: edema of the paws induced by viscarin-carrageenin; assay type: in vivo, rat; conditions: AMDK 600 mg/kg p.o.; for Edema volume: 10 animals
Method: The possibility of any effect on inflammatory reactions was tested on edema of the paws of rats (groups of ten rats each) induced by viscarin-carrageenin. […] The measurement of the course of the edema was performed at 3, 5, 7 and 24 hours after the edematization. […] Where the variances between the experimental and control groups were unequal, the more rigorous t test (according to SNEDECOR) was applied for the judgment.

[2] = acute toxicity / tolerability in the mouse; assay type: in vivo; conditions: alizarin, one gram per kilogram
[3] = in vitro crystallization of calcium oxalate
[4] = overall summary of pharmacological and toxicological tests; assay type: in vivo
[5] = system: oxalate urolithiasis; assay: therapeutic use in oxalate urolithiasis (general statements); assay type: in vivo, human; conditions: general statement
[6] = acute toxicity / tolerability in the rat; assay type: in vivo; conditions: alizarin, up to 400 mg/kg

| Molecule | Percentage of inhibition (edema) ([1]; 3 hours after edematization) [Percentage] | Edema volume ([1]; 3 hours after edematization) [mL] | Percentage of inhibition (edema) ([1]; 5 hours after edematization) [Percentage] | Edema volume ([1]; 5 hours after edematization) [mL] | Percentage of inhibition (edema) ([1]; 7 hours after edematization) [Percentage] | Edema volume ([1]; 7 hours after edematization) [mL] | Percentage of inhibition (edema) ([1]; 24 hours after edematization) [Percentage] | Edema volume ([1]; 24 hours after edematization) [mL] | tolerance of acute administration [2] | action on the crystallization of calcium oxalate [3] | tolerance in the acute toxicity test [4] | effect on the formation of stones [5] | effectiveness in treatment of urolithiasis [5] | tolerance [5] | tolerance of acute administration [6] |
| --- | --- | --- | --- | --- | --- | --- | --- | --- | --- | --- | --- | --- | --- | --- | --- |
| Sodium escinate | 41.4 | 46.5 | 37.2 | 50.7 | 39.1 | 46.6 | 40.9 | 14.9 |  |  |  |  |  |  |  |
| O=C1c2ccccc2C(=O)c2c1ccc(O)c2O [alizarin] |  |  |  |  |  |  |  |  | tolerated without producing symptoms | inhibiting action on the crystallization of calcium oxalate | extremely well tolerated | decided inhibitive effect on the formation of stones | decidedly effective | easily tolerated; also recorded: very well tolerated | tolerated without producing symptoms |

— patent US4447455A, “Oral urolithiasis remedy” (Madaus and Company, priority 1982, dated 1984)
